Patent publication US8147838B2, “Peptide” (priority 2005, dated 2012)
No end group written: not given here.

Legend:
[1] = molecular target: MHC class I allele A*0301 (A3) (Homo sapiens, UniProt P04439); assay: iScore multi-parametric analysis, A*0301; type: binding; settings: for iScore, MHC Class I Molecule A*0301: level of binding: >0.5, 0.25-0.5, <0.25; for iScore (iTopia), A*0301: integrates half-life and ED50
Experimental: (§1) Finally, multiparametric analysis is performed on the results from these assays and an iScore is generated. The iScore represents a measure of the overall quality of peptide-MHC binding, enabling candidate peptides to be ranked in order of binding quality and allowing rational prioritisation of peptides for functional cellular follow-up studies.
(§2) As part of the validation of the iTopia system, a panel of overlapping peptides derived from the CMV pp 65 protein were used and their binding properties for the A*0201 allele analysed. A number of T cell epitopes restricted by HLA A*0201 had already been identified (by more conventional methodologies) by other researchers for this protein. In the iTopia study, it was reported that an iScore of: >0.5 represented “good quality binding”; between 0.25 and 0.5 represented “medium quality binding”; and <0.25 represented “poor quality binding”. Six of the 20 peptides which gave a “good” iScore (>0.5) for A*0201, represented previously characterised CMV pp 65 A*0201 epitopes.
(§3) Each MHC class I allele has different binding properties and affinities for peptides which they bind. Therefore, information obtained with HLA A*0201 in which peptides are ranked as good, medium or poor binders using >0.5, 0.25-0.5 and <0.25 as thresholds is not necessarily transferable between alleles. Also, different proteins are likely to have distinct immunogenic profiles and the affinities between peptides and MHC class I molecules will be different between proteins. This may be particularly relevant in the case of self-antigens where immunogenicity is likely to be lower than in foreign proteins.
(§4) Multi-parametric analysis permits the integration of half-life and ED50 parameters in an integrated iScore. This reflects the capability of a peptide to reconstitute with MHC molecules in a stable complex, defining its overall level of binding i.e. the iScore value represents the overall quality of peptide-MHC binding and is used to rank candidate peptides as an indicator of functional relevance. The lead candidate epitopes for each allele are selected for cellular functional analysis to confirm their biological relevance.
(§5) The changes in gradient of the graphs in FIGS. 7 to 10 are indicated by a line which delineates the populations of iScores forming the basis of discrimination for further functional studies.

[2] = molecular target: MHC class I allele A*0101 (A1) (Homo sapiens, UniProt P04439, A114D/A174V/A182V/D101N/D185E/E176A/E190D/L180R/Q94H/R68K/S129P/T187R/V100A/V91M/W191G); assay: iScore multi-parametric analysis, A*0101; type: binding; settings: level of binding: >0.5, 0.25-0.5, <0.25
Experimental: as §1, §2, §3, §4, §5

[3] = molecular target: MHC class I allele B*0702 (B7) (Homo sapiens, UniProt P01889); assay: iScore multi-parametric analysis, B*0702; settings: level of binding: >0.5, 0.25-0.5, <0.25
Experimental: as §1
As part of the validation of the iTopia system, a panel of overlapping peptides derived from the CMV pp 65 protein were used and their binding properties for the A*0201 allele analysed. A number of T cell epitopes restricted by HLA A*0201 had already been identified (by more conventional methodologies) by other researchers for this protein. In the iTopia study, it was reported that an iScore of: >0.5 represented “good quality binding”; between 0.25 and 0.5 represented “medium quality binding”; and <0.25 represented “poor quality binding”.
as §4

[4] = molecular target: MHC class I allele A*0201 (A2) (Homo sapiens, UniProt P04439, D140Y/D185E/D98H/E176V/E277Q/G131W/G231S/I119V/I121R/I166T/I218V/L300P/L318F/N151K/N90K/P208A/P217A/Q86G/Q94H/R138H/R169H/T345S); assay: iScore multi-parametric analysis, A*0201; type: binding; settings: level of binding: >0.5, 0.25-0.5, <0.25
Experimental: as §1, §2, §3, §4, §5

Row | Molecule | iScore, MHC Class I Molecule A*0301 [1] | iScore, MHC Class I Molecule A*0101 [2] | iScore, MHC Class I Molecule B*0702 [3] | iScore, MHC Class I Molecule A*0201 [4] | iScore (iTopia), A*0301 [1]
1 | GLRRLELAS [Peptide 106] | 0 | 0 | 0 | 0.046 | –
2 | LLAGRALQG [Peptide 102] | 0 | 0 | 0 | 0.176 | –
3 | PLPDQCPAL [Peptide 29, PLPDQCPAL] | 0 | 0 | 0 | 0.088 | –
4 | LVLLGWVSS [Peptide 12] | 0 | 0 | 0 | 0.122 | –
5 | ASVSAPSPL [Peptide 84] | 0 | 0 | 0.017 | 0.059 | –
6 | GLPHIRVFL [Peptide 142] | 0.319 | 0 | 0.075 | 1.39 | 0.319
7 | ILNHIVPPE [Peptide 90] | 0 | 0 | 0 | 0.426 | –
8 | ALKVLHNGT [Peptide 135] | 0 | 0 | 0 | 0.104 | –
9 | SYVFLGIVL [Peptide 178] | 0 | 0 | 0.045 | 0.118 | –
10 | LSPFAFSGS [Peptide 79] | 0 | 0 | 0 | 0.064 | –
11 | LSHNPLADL [Peptide 75] | 0 | 0 | 0 | 0.095 | –
12 | DGRLRLARL [Peptide 7] | 0 | 0 | 0.038 | 0 | –
13 | AGDGRLRLA [Peptide 6] | 0 | 0 | 0 | 0.023 | –
14 | KVLHNGTLA [Peptide 136] | 0 | 0 | 0 | 0.15 | –
15 | LHNGTLAEL [Peptide 137] | 0 | 0 | 0.026 | 0.187 | –
16 | EKMRNRVLL [Peptide 164] | 0 | 0 | 0 | 0.096 | –
17 | LDLSHNPLA [Peptide 74] | 0 | 0 | 0 | 0.226 | –
18 | QTSYVFLGI [Peptide 177] | 0 | 0.027 | 0 | 0.127 | –
19 | LALVLLGWV [Peptide 11] | 0 | 0 | 0 | 0.237 | –
20 | MHNIRDACR [Peptide 193] | 0 | 0 | 0 | 0.093 | –
21 | LALIGAIFL [Peptide 182] | 0 | 0 | 0.067 | 0.425 | –
22 | FARRPPLAE [Peptide 56] | 0 | 0 | 0 | 0.042 | –
23 | FLASAVSAQ [Peptide 24] | 0 | 0 | 0 | 0.134 | –
24 | RHLDLSNNS [Peptide 119] | 0 | 0 | 0 | 0.029 | –
25 | VLYLNRKGI [Peptide 187] | 0.014 | 0 | 0.164 | 0.095 | –
26 | GSRLDEVRA [Peptide 64] | 0 | 0 | 0 | 0.13 | –
27 | VFLDNNPWV [Peptide 145] | 0 | 0 | 0 | 0.239 | –
28 | SNHFLYLPR [Peptide 110] | 0.084 | 0 | 0 | 0.051 | –
29 | GAFARRPPL [Peptide 55] | 0 | 0 | 0.359 | 0.222 | –
30 | CC(C)C[C@H](NC(=O)[C@H](Cc1ccc(O)cc1)NC(=O)[C@H](CC(C)C)NC(=O)[C@@H](NC(=O)[C@H](CC(C)C)NC(=O)[C@@H](N)CC(C)C)C(C)C)C(=O)N[C@@H](CC(N)=O)C(=O)N[C@@H](CCCNC(=N)N)C(=O)N[C@@H](CCCCN)C(=O)O [Peptide 186] | 0.372 | 0 | – | 0.386 | 0.375
